# Biological target: T1, human orexin type 2 receptor (Homo sapiens, UniProt O43614)
# T1 construct: expressed in transfected cells
# T1 sequence (O43614 1-444): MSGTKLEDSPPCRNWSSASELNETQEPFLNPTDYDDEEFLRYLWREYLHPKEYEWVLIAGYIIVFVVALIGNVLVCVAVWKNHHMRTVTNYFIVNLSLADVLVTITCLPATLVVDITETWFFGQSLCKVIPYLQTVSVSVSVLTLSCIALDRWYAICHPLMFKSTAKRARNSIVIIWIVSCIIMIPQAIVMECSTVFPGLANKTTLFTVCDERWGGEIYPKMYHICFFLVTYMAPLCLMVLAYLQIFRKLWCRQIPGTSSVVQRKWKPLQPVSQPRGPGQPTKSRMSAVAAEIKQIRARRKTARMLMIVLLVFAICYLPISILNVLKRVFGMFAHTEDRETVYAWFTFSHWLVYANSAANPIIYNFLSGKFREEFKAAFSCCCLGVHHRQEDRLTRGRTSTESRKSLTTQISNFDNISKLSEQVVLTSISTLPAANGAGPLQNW
# Test: Measurement of orexin type 2 receptor agonist activity (calcium fluorescence, Fluo-4 AM, FDSS) in CHO cells forcibly expressing human OX2 receptor
# Assay type: cell-based
# Settings: test compound 3 μM, DMSO = 0%, orexin A (human) 10 nM = 100%
# In short: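 CHO-dhfr cells stably expressing human OX2 receptor, loaded with Fluo-4 AM plus probenecid for 30 min at 37 °C, then 30 min at room temperature. Calcium fluorescence read for about 2 min 40 s after compound addition. Activity (%) scaled between DMSO (0%) and 10 nM human orexin A (100%).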
row,"0X2R agonist activity (3 μM, %)",SMILES
1,89%,"CCc1ccc2n(c1=O)[C@@H](Cc1cccc(C3CC3)c1)[C@@H](NS(C)(=O)=O)CC2 (racemic) [Example 136, rac-N-{(3S,4S)-4-[(3-cyclopropylphenyl)methyl]-7-ethyl-6-oxo-1,3,4,6-tetrahydro-2H-quinolizin-3-yl}methanesulfonamide]"
2,101%,"CC(C)c1nn(C)c2c(c1=O)[C@@H](Cc1cccc(-c3ccccc3)c1)[C@@H](NS(C)(=O)=O)CC2 (racemic) [Example 158, rac-N-[(5R,6S)-5-[([1,1′-biphenyl]-3-yl)methyl]-1-methyl-4-oxo-3-(propan-2-yl)-1,4,5,6,7,8-hexahydrocinnolin-6-yl]methanesulfonamide]"
3,94%,"Cc1ccc2n(c1=O)[C@@H](Cc1cccc(-c3cccc(F)c3)c1)[C@@H](NS(C)(=O)=O)CC2 (relative stereo) [Example 69, rel-N-{(3S,4S)-4-[(3′-fluoro[1,1′-biphenyl]-3-yl)methyl]-7-methyl-6-oxo-1,3,4,6-tetrahydro-2H-quinolizin-3-yl}methanesulfonamide]"
4,104%,"CC(C)n1cnc2c(c1=O)[C@@H](Cc1csc(-c3ccccc3F)n1)[C@@H](NS(C)(=O)=O)CC2 (relative stereo) [Example 155, rel-N-[(5R,6S)-5-{[2-(2-fluorophenyl)-1,3-thiazol-4-yl]methyl}-4-oxo-3-(propan-2-yl)-3,4,5,6,7,8-hexahydroquinazolin-6-yl]methanesulfonamide]"
5,79%,"CS(=O)(=O)N[C@H]1CCc2cccc(=O)n2[C@H]1Cc1cccc(-c2ccccc2)c1 (racemic) [Example 1, rac-N-{(3S,4S)-4-[([1,1′-biphenyl]-3-yl)methyl]-6-oxo-1,3,4,6-tetrahydro-2H-quinolizin-3-yl}methanesulfonamide]"
6,113%,"Cc1cc(=O)n2c(c1C)CC[C@H](NS(C)(=O)=O)[C@@H]2Cc1cccc(-c2ccccc2)c1 (racemic) [Example 20, rac-N-{(3S,4S)-4-[([1,1′-biphenyl]-3-yl)methyl]-8,9-dimethyl-6-oxo-1,3,4,6-tetrahydro-2H-quinolizin-3-yl}methanesulfonamide]"
7,86%,"Cc1ccc2n(c1=O)[C@@H](Cc1cccc(-c3cccc(F)c3)n1)[C@@H](NS(C)(=O)=O)CC2 (racemic) [Example 59, rac-N-[(3S,4S)-4-{[6-(3-fluorophenyl)pyridin-2-yl]methyl}-7-methyl-6-oxo-1,3,4,6-tetrahydro-2H-quinolizin-3-yl]methanesulfonamide]"
8,105%,"CC(C)n1cnc2c(c1=O)[C@@H](Cc1cccc(-c3cc(F)cc(F)c3)c1)[C@@H](NS(C)(=O)=O)CC2 (racemic) [Example 67, rac-N-[(5R,6S)-5-[(3′,5′-difluoro[1,1′-biphenyl]-3-yl)methyl]-4-oxo-3-(propan-2-yl)-3,4,5,6,7,8-hexahydroquinazolin-6-yl]methanesulfonamide]"
9,72%,"CC(C)n1cnc2c(c1=O)[C@@H](Cc1ccccc1Oc1ccccc1)[C@@H](NS(C)(=O)=O)CC2 (racemic) [Example 133, rac-N-[(5R,6S)-4-oxo-5-[(2-phenoxyphenyl)methyl]-3-(propan-2-yl)-3,4,5,6,7,8-hexahydroquinazolin-6-yl]methanesulfonamide]"
10,96%,"CC(C)n1cnc2c(c1=O)[C@@H](Cc1cccc(-c3ccccc3)c1)[C@@H](NS(=O)(=O)C1(F)CC1)CC2 (racemic) [Example 146, rac-N-[(5R,6S)-5-[([1,1′-biphenyl]-3-yl)methyl]-4-oxo-3-(propan-2-yl)-3,4,5,6,7,8-hexahydroquinazolin-6-yl]-1-fluorocyclopropane-1-sulfonamide]"
11,102%,"Cn1ccc2c(c1=O)[C@@H](Cc1cccc(-c3ccccc3)c1)[C@@H](NS(C)(=O)=O)CC2 (racemic) [Example 46, rac-N-{(7S,8R)-8-[([1,1′-biphenyl]-3-yl)methyl]-2-methyl-1-oxo-1,2,5,6,7,8-hexahydroisoquinolin-7-yl}methanesulfonamide]"
12,101%,"CC(C)c1nn(C)c2c(c1=O)[C@@H](Cc1cccc(-c3ccccc3)c1)[C@@H](NS(C)(=O)=O)CC2 (relative stereo) [Example 161, rel-N-[(5R,6S)-5-[([1,1′-biphenyl]-3-yl)methyl]-1-methyl-4-oxo-3-(propan-2-yl)-1,4,5,6,7,8-hexahydrocinnolin-6-yl]methanesulfonamide]"
13,96%,"CC(C)n1cnc2c(c1=O)[C@@H](Cc1cccc(-c3ccccc3)c1F)[C@@H](NS(=O)(=O)C1CC1)[C@H](F)C2 (relative stereo) [Example 206, rel-N-[(5R,6R,7R)-7-fluoro-5-[(2-fluoro[1,1′-biphenyl]-3-yl)methyl]-4-oxo-3-(propan-2-yl)-3,4,5,6,7,8-hexahydroquinazolin-6-yl]cyclopropanesulfonamide]"
14,92%,"CC(C)=Cc1cccc(C[C@@H]2c3c(ncn(C(C)C)c3=O)CC[C@@H]2NS(=O)(=O)C2(F)CC2)c1 (racemic) [Example 197, rac-1-fluoro-N-[(5R,6S)-5-{[3-(2-methylprop-1-en-1-yl)phenyl]methyl}-4-oxo-3-(propan-2-yl)-3,4,5,6,7,8-hexahydroquinazolin-6-yl]cyclopropane-1-sulfonamide]"
15,95%,"CCS(=O)(=O)N[C@H]1CCc2ncn(C(C)C)c(=O)c2[C@H]1Cc1cccc(-c2cc(F)cc(F)c2)c1 [Example 177, N-[(5R,6S)-5-[(3′,5′-difluoro[1,1′-biphenyl]-3-yl)methyl]-4-oxo-3-(propan-2-yl)-3,4,5,6,7,8-hexahydroquinazolin-6-yl]ethanesulfonamide]"
16,106%,"CS(=O)(=O)N[C@H]1CCc2ccc(C3CC3)c(=O)n2[C@H]1Cc1cccc(-c2ccccc2)c1 (racemic) [Example 22, rac-N-{(3S,4S)-4-[([1,1′-biphenyl]-3-yl)methyl]-7-cyclopropyl-6-oxo-1,3,4,6-tetrahydro-2H-quinolizin-3-yl}methanesulfonamide]"
17,90%,"CCc1cccc(C[C@H]2[C@@H](NS(C)(=O)=O)CCc3ccc(CC)c(=O)n32)c1 (racemic) [Example 135, rac-N-{(3S,4S)-7-ethyl-4-[(3-ethylphenyl)methyl]-6-oxo-1,3,4,6-tetrahydro-2H-quinolizin-3-yl}methanesulfonamide]"
18,105%,"CCn1ccc2c(c1=O)[C@@H](Cc1cccc(-c3ccccc3F)c1)[C@@H](NS(C)(=O)=O)CC2 (racemic) [Example 119, rac-N-{(7S,8R)-2-ethyl-8-[(2′-fluoro[1,1′-biphenyl]-3-yl)methyl]-1-oxo-1,2,5,6,7,8-hexahydroisoquinolin-7-yl}methanesulfonamide]"
19,98%,"CCS(=O)(=O)N[C@H]1CCc2ncn(C(C)C)c(=O)c2[C@H]1Cc1cccc(-c2cccc(F)c2F)c1 (racemic) [Example 85, rac-N-[(5R,6S)-5-[(2′,3′-difluoro[1,1′-biphenyl]-3-yl)methyl]-4-oxo-3-(propan-2-yl)-3,4,5,6,7,8-hexahydroquinazolin-6-yl]ethanesulfonamide]"
20,101%,"CC(C)n1cnc2c(c1=O)[C@@H](Cc1cccc(-c3cc(F)cc(F)c3)c1F)[C@@H](NS(=O)(=O)C1(F)CC1)CC2 [Example 182, 1-fluoro-N-{(5R,6S)-4-oxo-3-(propan-2-yl)-5-[(2,3′,5′-trifluoro[1,1′-biphenyl]-3-yl)methyl]-3,4,5,6,7,8-hexahydroquinazolin-6-yl}cyclopropane-1-sulfonamide]"
21,74%,"Cn1cc2n(c1=O)[C@@H](Cc1cccc(-c3cc(F)cc(F)c3)c1F)[C@@H](NS(C)(=O)=O)CC2 (racemic) [Example 209, rac-N-{(5S,6S)-2-methyl-3-oxo-5-[(2,3′,5′-trifluoro[1,1′-biphenyl]-3-yl)methyl]-2,3,5,6,7,8-hexahydroimidazo[1,5-a]pyridin-6-yl}methanesulfonamide]"
22,91%,"CCn1cc2n(c1=O)[C@@H](Cc1cccc(-c3ccccc3)c1F)[C@@H](NS(C)(=O)=O)CC2 (racemic) [Example 204, rac-N-{(5S,6S)-2-ethyl-5-[(2-fluoro[1,1′-biphenyl]-3-yl)methyl]-3-oxo-2,3,5,6,7,8-hexahydroimidazo[1,5-a]pyridin-6-yl}methanesulfonamide]"
23,91%,"CC(C)n1ccc2c(c1=O)[C@@H](Cc1cccc(-c3cccc(F)c3)c1)[C@@H](NS(C)(=O)=O)CC2 (racemic) [Example 74, rac-N-[(7S,8R)-8-[(3′-fluoro[1,1′-biphenyl]-3-yl)methyl]-1-oxo-2-(propan-2-yl)-1,2,5,6,7,8-hexahydroisoquinolin-7-yl]methanesulfonamide]"
24,101%,"CC(C)n1cnc2c(c1=O)[C@@H](Cc1cccc(-c3ccccc3F)c1)[C@@H](NS(=O)(=O)C1CC1)CC2 [Example 192, N-[(5R,6S)-5-[(2′-fluoro[1,1′-biphenyl]-3-yl)methyl]-4-oxo-3-(propan-2-yl)-3,4,5,6,7,8-hexahydroquinazolin-6-yl]cyclopropanesulfonamide]"
